# “And” between values parts separate entries of the source, which are not always exact repeats. Equal values may be shown once.
# Legend:
# [1] = test system: antiserum containing antibody; experiment: radioimmunoassay: % of I-125 hapten bound by antibody in presence of digitoxin standards (standard curve); assay type: binding; conditions: for Mean % bound: mean of triplicate; for % bound: single vial
# Description: (§1) The relative amounts of antibody bound radioactive hapten and unbound radioactive hapten are then determined. Preferably, this is accomplished by a determination of the radioactive hapten in each vial by means of a gamma counter. The count rate of vial components following removal of the resin strip reflects the serum concentration of cardiotonic glycoside. A precount determination of radioactivity in the vial is made at the outset of the test on a gamma counter. The percent of radioactive hapten which is antibody bound is then calculated as follows: [formula] With increasing quantities of nonradioactive cardiotonic glycoside (patient or standard), the percent radioactive hapten bound by the antibody decreases. Based upon this principle, a standard curve is prepared by plotting the percent radioactive hapten bound by each of a series of standard sera versus their respective cardiotonic glycosides concentration. The patient's total circulating serum cardiotonic glycoside concentration is then readily determined by comparing the percent radioactive hapten bound in the patient's serum sample to the standard curve.
# These are produced by drying U.S.P. Reference Digitoxin at 100° C. for 2 hours in a vacuum desiccator. 50 mg is quantitatively transferred to a 100 ml volumetric flask and brought to that volume with methyl alcohol at 25° C. After mixing, 1 ml is transferred to another 100 ml volumetric flask and diluted to 10 ml with methyl alcohol. This 10 ml is diluted to 100 ml with distilled water. 1 ml is transferred to a 50 ml volumetric flask and diluted to 50 ml with digitoxin free normal human serum containing 0.1% NaN3. The product contains 100 ng/ml of digitoxin. This is diluted with normal human serum containing to 0.1% NaN3 to form a […] standard.
# (§2) The following procedure is employed in carrying out the radioimmumoassay method of the invention to prepare a standard curve.
# (§3) 1. The required number of reaction vials is removed from the freezer and the net precount per minute is determined for each vial during or after thawing. The thawed reaction vials are gently agitated. Preferably, the test is carried out in triplicate.
# (§4) 2. 50 microliters each of the 0, 0.4, 1.0, 2.0, 3.0 and 5.0 ng/ml standard is added to 18 reaction vials.
# (§5) 3. 50 microliters of antiserum is added to each of the reaction vials and the caps replaced.
# (§6) 4. The vial contents are mixed by rotating for one minute on a rotator at 12-14 rpm or by gently agitating the vial rack.
# (§7) 5. The reaction vials are incubated at room temperature for 30 minutes ± 5 minutes.
# (§8) 6. One ion-exchange resin strip is inserted in each reaction vial and the caps replaced.
# (§9) 7. The reaction vials are rotated for 30 minutes at ambient temperature (20° C. to 30° C.) on a rotator which produces end-over-end mixing at 12-14 rpm.
# (§10) 8. The resin strips are carefully removed and discarded. The resin strips should be allowed to drain over the vials by touching the strip lightly on top of the vial prior to replacing the vial caps.
# (§11) 9. The net postcount per minute is determined for each reaction vial.
# (§12) 10. The % I-125 bound is calculated by dividing the net CPM postcount by the net CPM precount and multiplying by 100. [formula]
# Essentially the same procedure was followed for 3-succinyl-digitoxigenin-L-tyrosine except 25 microliters of each digitoxin standard was used.
# [2] = test system: digoxin antiserum (antibody); experiment: radioimmunoassay: % of I-125 hapten bound by antibody in presence of digoxin standards (standard curve); assay type: binding, goats; conditions: for Mean % bound: mean of triplicate; for % bound: single vial
# Description: as §1
# This serum is produced in goats by the monthly injection of 7.5 mg of BSA-Digoxin conjugate emulsified in complete Freunds adjuvant. The conjugate is prepared by periodate oxidation according to Butler and Chen, Biochem J. 1970. Twenty mg are dissolved in one ml of phosphate buffer solution which is added dropwise with rapid mixing through a 1.0 ml tuberculin syringe to an equal volume of complete adjuvant. The material is injected into multiple subcutaneous sites.
# The final dilutions are such that they insure binding eq 60 ± 5% of 3-0-succinyl digoxigenin-L-tyrosine* and displacement by non-radioactive digoxin.
# A. Reaction vials: To 99 parts phosphate buffer solution add 1 part of reagent alcohol containing 7-100 nCi/10 ul of 3-0-succinyl digoxigenin tyrosine. Mix mechanically for 1 minute and transfer to an automatic pipette or dispensing device. 1 ml of the above prepared combination reagent is transferred to each reaction vial and the vials are stored at -20° C. (or lower).
# C. Digoxin, antiserum diluted as described above to contain the dilution of antibody binding 60% of a 7-100 nc quantity of 3-0-succinyl digoxigenin tyrosine 125-I.
# as §2, §3, §4, §5, §6, §7, §8, §9, §10, §11, §12
# 11. The values obtained should range from 60 + 5% at the 0 ng/ml concentration of digoxin/ml of serum to 20 ± 5% at 10 ng/ml.
# The above procedure was followed for 3-succinyl-digoxigenin-L-tyrosin, 3-adipyl-digoxigenin-L-tryosine and 3-carbodigoxigenin-glycyl-L-tyrosine. […]
# [3] = digitoxin standard 0.0 ng/ml, 25 microliters
# [4] = digitoxin standard 4.0 ng/ml, 25 microliters
# [5] = digitoxin standard 10.0 ng/ml, 25 microliters
# [6] = digitoxin standard 20.0 ng/ml, 25 microliters
# [7] = digitoxin standard 30.0 ng/ml, 25 microliters
# [8] = digitoxin standard 50.0 ng/ml, 25 microliters
# [9] = digitoxin standard 100.0 ng/ml, 25 microliters
Structure (SMILES),"Mean % bound ([2]; control, no antibody)","% bound ([2]; control, no antibody)",Mean % bound ([2]; digoxin standard 0 ng/ml),% bound ([2]; digoxin standard 0 ng/ml),Mean % bound ([2]; digoxin standard 1.0 ng/ml),% bound ([2]; digoxin standard 1.0 ng/ml),Mean % bound ([2]; digoxin standard 2.0 ng/ml),% bound ([2]; digoxin standard 2.0 ng/ml),Mean % bound ([2]; digoxin standard 3.0 ng/ml),% bound ([2]; digoxin standard 3.0 ng/ml),Mean % bound ([2]; digoxin standard 5.0 ng/ml),% bound ([2]; digoxin standard 5.0 ng/ml),Mean % bound ([2]; digoxin standard .4 ng/ml),% bound ([2]; digoxin standard .4 ng/ml),further results
C[C@]12CC[C@H](OC(=O)CCC(=O)N[C@@H](Cc3ccc(O)cc3)C(=O)O)C[C@H]1CC[C@@H]1[C@@H]2CC[C@]2(C)[C@@H](C3=CC(=O)OC3)CC[C@]12O [3-succinyl digitoxigenin-L-tyrosine],,,,,,,,,,,,,,,"Mean % bound ([1]; control, no antibody): 18.8%; % bound ([1]; control, no antibody): 18.0% and 18.9% and 19.4%; Mean % bound [1, 3]: 70.2%; % bound [1, 3]: 70.8% and 70.7% and 69.0%; Mean % bound [1, 4]: 67.3%; % bound [1, 4]: 67.3% and 67.6% and 66.9%; Mean % bound [1, 5]: 59.9%; % bound [1, 5]: 59.9% and 60.2% and 59.5%; Mean % bound [1, 6]: 46.8%; % bound [1, 6]: 45.8% and 47.3% and 47.2%; Mean % bound [1, 7]: 35.6%; % bound [1, 7]: 33.9% and 36.7% and 36.2%; Mean % bound [1, 8]: 27.7%; % bound [1, 8]: 26.5% and 29.4% and 27.1%; Mean % bound [1, 9]: 22.9%; % bound [1, 9]: 22.2% and 22.5% and 24.0%"
C[C@]12CC[C@H](OC(=O)CCC(=O)N[C@@H](Cc3ccc(O)cc3)C(=O)O)C[C@H]1CC[C@@H]1[C@@H]2C[C@@H](O)[C@]2(C)[C@@H](C3=CC(=O)OC3)CC[C@]12O [3-succinyl-digoxigenin-L-tyrosine],5.5%,5.7% and 6.0% and 4.7%,66.8%,67.2% and 65.4% and 67.7%,49.0%,48.6% and 49.8%,35.5%,35.0% and 34.6% and 36.9%,27.2%,27.4% and 26.7% and 27.5%,19.6%,19.9% and 19.3% and 19.6%,58.5%,59.3% and 57.2% and 59.0%,
C[C@]12CC[C@H](OC(=O)CCCCC(=O)N[C@@H](Cc3ccc(O)cc3)C(=O)O)C[C@H]1CC[C@@H]1[C@@H]2C[C@@H](O)[C@]2(C)[C@@H](C3=CC(=O)OC3)CC[C@]12O [3-adipyl-digoxigenin-L-tyrosine],3.9%,4.0% and 3.6%,65.2%,66.4% and 64.8% and 64.3%,46.8%,46.1% and 47.0% and 47.3%,33.4%,34.8% and 32.2% and 33.3%,25.4%,26.1% and 25.1% and 25.0%,17.2%,16.9% and 16.5% and 18.0%,57.5%,57.8% and 57.4% and 57.2%,
C[C@]12CC[C@H](OC(=O)NCC(=O)N[C@@H](Cc3ccc(O)cc3)C(=O)O)C[C@H]1CC[C@@H]1[C@@H]2C[C@@H](O)[C@]2(C)[C@@H](C3=CC(=O)OC3)CC[C@]12O [3-carbodigoxigenin-glycyl-L-tyrosine],5.2%,5.5% and 5.4% and 4.8%,56.6%,57.0% and 55.8% and 56.9%,41.3%,39.4% and 41.7% and 42.9%,31.6%,31.5% and 31.7% and 31.4%,25.3%,25.5% and 23.3% and 26.9%,17.9%,18.3% and 18.2% and 17.1%,51.3%,50.8% and 51.4% and 51.8%,
